Measurements as given in ChEMBL document CHEMBL1201862, “PubChem BioAssay data set” (2004).
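Test compounds were applied to cells in 96-well plates for 48 hours at 5 doses. GI50: concentration for 50% inhibition of growth.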 Activity calls are given as the source filed them. Rule as the data show it: active = GI50 up to about 1.1 µM and inactive = higher.

Key:
Assay in all cases: DTP human tumour cell line panel, 48 h
HT-29 = test system: HT-29
NCI-H23 = test system: NCI-H23
SW-620 = test system: SW-620
KM12 = test system: KM12
OVCAR-5 = test system: OVCAR-5
HCT-116 = test system: HCT-116
MDA-N = test system: MDA-N
SN12C = test system: SN12C
MDA-MB-435 = test system: MDA-MB-435
SK-MEL-28 = test system: SK-MEL-28
SNB-19 = test system: SNB-19
UO-31 = test system: UO-31
DU-145 = test system: DU-145
RXF 393 = test system: RXF 393
T47D = test system: T47D
U-251 = test system: U-251
786-0 = test system: 786-0
HCC 2998 = test system: HCC 2998
NCI/ADR-RES = test system: NCI/ADR-RES
BT-549 = test system: BT-549
UACC-257 = test system: UACC-257
EKVX = test system: EKVX
SK-MEL-5 = test system: SK-MEL-5
LOX IMVI = test system: LOX IMVI
CAKI-1 = test system: CAKI-1
NCI-H522 = test system: NCI-H522
DLD-1 = test system: DLD-1
MOLT-4 = test system: MOLT-4
K562 = test system: K562
SNB-75 = test system: SNB-75
Malme-3M = test system: Malme-3M
OVCAR-4 = test system: OVCAR-4
MCF7 = test system: MCF7
CCRF-CEM = test system: CCRF-CEM
SF-268 = test system: SF-268
HOP-62 = test system: HOP-62
NCI-H226 = test system: NCI-H226
SF-295 = test system: SF-295
A498 = test system: A498
SK-MEL-2 = test system: SK-MEL-2
SF-539 = test system: SF-539
UACC-62 = test system: UACC-62
HOP-92 = test system: HOP-92
TK-10 = test system: TK-10
DMS-273 = test system: DMS-273
COLO 205 = test system: COLO 205
KM-20L2 = test system: KM-20L2
PC-3 = test system: PC-3
HCT-15 = test system: HCT-15
RPMI-8226 = test system: RPMI-8226
SNB-78 = test system: SNB-78
OVCAR-8 = test system: OVCAR-8
OVCAR-3 = test system: OVCAR-3
HL-60 = test system: HL-60
XF498 = test system: XF498
A549 = test system: A549
ACHN = test system: ACHN
NCI-H460 = test system: NCI-H460
M14 = test system: M14
IGROV-1 = test system: IGROV-1
SR = test system: SR
Hs-578T = test system: Hs-578T
DMS-114 = test system: DMS-114
SK-OV-3 = test system: SK-OV-3
LXFL 529 = test system: LXFL 529
M19-MEL = test system: M19-MEL

Measured: GI50

CCOC(=O)N[C@H]1CCc2cc(OC)c(OC)c(OC)c2-c2ccc(SC)c(=O)cc21
active: HT-29 < 10 nM | NCI-H23 < 10 nM | SW-620 < 10 nM | KM12 < 10 nM | OVCAR-5 317 nM | HCT-116 < 10 nM | MDA-N < 10 nM | SN12C < 28.7 nM | MDA-MB-435 < 10 nM | SK-MEL-28 746 nM | SNB-19 108 nM | UO-31 < 11.7 nM | DU-145 < 10 nM | RXF 393 < 10 nM | U-251 < 10 nM | 786-0 < 10 nM | HCC 2998 < 10 nM | NCI/ADR-RES 22.8 nM | BT-549 < 10 nM | SK-MEL-5 < 10 nM | LOX IMVI < 10 nM | CAKI-1 < 10 nM | NCI-H522 < 10 nM | DLD-1 < 10 nM | MOLT-4 < 10 nM | K562 < 10 nM | SNB-75 < 43.4 nM | Malme-3M < 10 nM | MCF7 < 10 nM | CCRF-CEM < 10 nM | SF-268 < 10 nM | HOP-62 < 10 nM | NCI-H226 163 nM | SF-295 < 10 nM | A498 < 10 nM | SK-MEL-2 < 10 nM | SF-539 < 10 nM | UACC-62 < 10 nM | HOP-92 < 10 nM | TK-10 1000 nM | DMS-273 < 10 nM | COLO 205 < 10 nM | KM-20L2 < 10 nM | PC-3 < 10 nM | RPMI-8226 < 10 nM | SNB-78 < 10 nM | OVCAR-8 < 10 nM | OVCAR-3 < 10 nM | HL-60 < 10 nM | XF498 < 10 nM | A549 < 10 nM | ACHN < 10 nM | NCI-H460 < 10 nM | M14 < 10 nM | IGROV-1 < 10 nM | SR < 10 nM | Hs-578T < 10 nM
inactive: T47D > 54600 nM | UACC-257 16600 nM | EKVX 29900 nM | OVCAR-4 16000 nM
< 10 nM: HCT-15

O=C(Nc1ccccc1)c1ccc(Cl)c([N+](=O)[O-])c1
7240 nM: HCT-15
inactive: HT-29 13400 nM | NCI-H23 23000 nM | SW-620 4850 nM | KM12 3090 nM | DMS-114 16600 nM | SN12C 5210 nM | SK-OV-3 23600 nM | SK-MEL-28 22400 nM | SNB-19 15500 nM | UO-31 36100 nM | RXF 393 21700 nM | U-251 19500 nM | 786-0 4850 nM | UACC-257 15400 nM | EKVX 28400 nM | SK-MEL-5 5820 nM | LOX IMVI 4460 nM | CAKI-1 6050 nM | NCI-H522 6790 nM | DLD-1 23400 nM | MOLT-4 3850 nM | LXFL 529 3780 nM | K562 2960 nM | SNB-75 13800 nM | Malme-3M 20500 nM | CCRF-CEM 4140 nM | SF-268 > 10000 nM | HOP-62 32700 nM | NCI-H226 25200 nM | SF-295 15300 nM | A498 21800 nM | SK-MEL-2 13200 nM | SF-539 21400 nM | UACC-62 6680 nM | TK-10 29300 nM | DMS-273 3450 nM | COLO 205 28200 nM | KM-20L2 13500 nM | RPMI-8226 3880 nM | SNB-78 17300 nM | M19-MEL 12500 nM | OVCAR-8 9330 nM | OVCAR-3 19100 nM | XF498 18000 nM | A549 20200 nM | NCI-H460 6310 nM | M14 10200 nM | IGROV-1 14800 nM
